Columns and labels:
LRRK2 FL = LRRK2 FL (Homo sapiens, UniProt Q5S007); assay: SelectScreen kinase profiling, Adapta; assay type: biochemical
FLT4 (VEGFR3) = FLT4 (VEGFR3) (Homo sapiens, UniProt P35916); assay: SelectScreen kinase profiling, ZLYTE; assay type: biochemical
GRK4 = GRK4 (Homo sapiens, UniProt P32298); assay: SelectScreen kinase profiling, ZLYTE; assay type: biochemical; settings: GRK4, 10 µM
PRKCZ (PKC zeta) = PRKCZ (PKC zeta) (Homo sapiens, UniProt Q05513); assay: SelectScreen kinase profiling, ZLYTE; assay type: biochemical
INSRR (IRR) = INSRR (IRR) (Homo sapiens, UniProt P14616); assay: SelectScreen kinase profiling, ZLYTE; assay type: biochemical
Text: (§1) Kinase Technology % Inhibition Avg Kinase Technology % Inhibition Avg
(§2) STK23 (MSSK1) ZLYTE 59 TGFBR1 (ALK5) LanthaScreen 85
(§3) STK24 (MST3) ZLYTE 85 TGFBR2 LanthaScreen 77
(§4) STK25 (YSK1) ZLYTE 45 TLK1 LanthaScreen 4
(§5) STK3 (MST2) ZLYTE 77 TLK2 LanthaScreen 33
(§6) STK32B (YANK2) LanthaScreen 61 TNIK LanthaScreen 15
(§7) STK32C (YANK3) LanthaScreen 62 TNK1 ZLYTE 94
(§8) STK33 LanthaScreen 81 TNK2 (ACK) LanthaScreen 71
(§9) STK38 (NDR) LanthaScreen 85 TTK LanthaScreen 54
(§10) STK38L (NDR2) LanthaScreen 59 TXK ZLYTE 94
(§11) STK39 (STLK3) LanthaScreen 38 TYK2 ZLYTE 99
(§12) STK4 (MST1) ZLYTE 93 TYRO3 (RSE) ZLYTE 92
(§13) SYK ZLYTE 98 ULK1 LanthaScreen 80
(§14) TAOK1 LanthaScreen 82 ULK2 LanthaScreen 56
(§15) TAOK2 (TAO1) ZLYTE 87 ULK3 LanthaScreen 5
(§16) TAOK3 (JIK) LanthaScreen 25 VRK2 LanthaScreen 32
(§17) TBK1 ZLYTE 99 WEE1 LanthaScreen 75
(§18) TEC LanthaScreen -9 WNK1 LanthaScreen 2
(§19) TEK (Tie2) ZLYTE 99 WNK2 LanthaScreen 1
(§20) TEK (TIE2) R849W LanthaScreen -5 WNK3 LanthaScreen 7
(§21) TEK (TIE2) Y897S ZLYTE 80 ZAK LanthaScreen 77
(§22) TESK1 LanthaScreen 37 ZAP70 ZLYTE 24
(§23) cleavage (Thermo Fisher Scientific, USA)

CSNK1E (CK1 epsilon) = CSNK1E (CK1 epsilon) (Homo sapiens, UniProt P49674); assay: SelectScreen kinase profiling, ZLYTE; assay type: biochemical
Text: as §1, §2, §3, §4, §5, §6, §7, §8, §9, §10, §11, §12, §13, §14, §15, §16, §17, §18, §19, §20, §21, §22, §23

RPS6KA3 (RSK2) = RPS6KA3 (RSK2) (Homo sapiens, UniProt P51812); assay: SelectScreen kinase profiling, ZLYTE; assay type: biochemical
Text: as §1, §2, §3, §4, §5, §6, §7, §8, §9, §10, §11, §12, §13, §14, §15, §16, §17, §18, §19, §20, §21, §22, §23

BTK = BTK (Homo sapiens, UniProt Q06187); assay: SelectScreen kinase profiling, ZLYTE; assay type: biochemical
Text: as §1, §2, §3, §4, §5, §6, §7, §8, §9, §10, §11, §12, §13, §14, §15, §16, §17, §18, §19, §20, §21, §22, §23

PTK2 (FAK) = PTK2 (FAK) (Homo sapiens, UniProt Q05397); assay: SelectScreen kinase profiling, ZLYTE; assay type: biochemical
Text: as §1, §2, §3, §4, §5, §6, §7, §8, §9, §10, §11, §12, §13, §14, §15, §16, §17, §18, §19, §20, §21, §22, §23

GRK5 = GRK5 (Homo sapiens, UniProt P34947); assay: SelectScreen kinase profiling, ZLYTE; assay type: biochemical; settings: GRK5, 10 µM
Text: as §1, §2, §3, §4, §5, §6, §7, §8, §9, §10, §11, §12, §13, §14, §15, §16, §17, §18, §19, §20, §21, §22, §23

RAF1 (cRAF) Y340D Y341D = RAF1 (cRAF) Y340D Y341D (Homo sapiens, UniProt P04049, Y340D/Y341D); assay: SelectScreen kinase profiling, ZLYTE; assay type: biochemical
Text: as §1, §2, §3, §4, §5, §6, §7, §8, §9, §10, §11, §12, §13, §14, §15, §16, §17, §18, §19, §20, §21, §22, §23

PLK2 = PLK2 (Homo sapiens, UniProt Q9NYY3); assay: SelectScreen kinase profiling, ZLYTE; assay type: biochemical; settings: PLK2, 10 µM
Text: as §1, §2, §3, §4, §5, §6, §7, §8, §9, §10, §11, §12, §13, §14, §15, §16, §17, §18, §19, §20, §21, §22, §23

STK22D (TSSK1) = STK22D (TSSK1) (Homo sapiens, UniProt Q9BXA7); assay: SelectScreen kinase profiling, ZLYTE; assay type: biochemical
Text: as §1, §2, §3, §4, §5, §6, §7, §8, §9, §10, §11, §12, §13, §14, §15, §16, §17, §18, §19, §20, §21, §22, §23

NEK6 = NEK6 (Homo sapiens, UniProt Q9HC98); assay: SelectScreen kinase profiling, ZLYTE; assay type: biochemical; settings: NEK6, 10 µM
Text: as §1, §2, §3, §4, §5, §6, §7, §8, §9, §10, §11, §12, §13, §14, §15, §16, §17, §18, §19, §20, §21, §22, §23

KSR2 = KSR2 (Homo sapiens, UniProt Q6VAB6); assay: SelectScreen kinase profiling, ZLYTE; assay type: biochemical; settings: KSR2, 10 µM
Text: as §1, §2, §3, §4, §5, §6, §7, §8, §9, §10, §11, §12, §13, §14, §15, §16, §17, §18, §19, §20, §21, §22, §23

PTK6 (Brk) = PTK6 (Brk) (Homo sapiens, UniProt Q13882); assay: SelectScreen kinase profiling, ZLYTE; assay type: biochemical
Text: as §1, §2, §3, §4, §5, §6, §7, §8, §9, §10, §11, §12, §13, §14, §15, §16, §17, §18, §19, §20, §21, §22, §23

INSR = INSR (Homo sapiens, UniProt P06213); assay: SelectScreen kinase profiling, ZLYTE; assay type: biochemical
Text: as §1, §2, §3, §4, §5, §6, §7, §8, §9, §10, §11, §12, §13, §14, §15, §16, §17, §18, §19, §20, §21, §22, §23

MST1R (RON) = MST1R (RON) (Homo sapiens, UniProt Q04912); assay: SelectScreen kinase profiling, ZLYTE; assay type: biochemical
Text: as §1, §2, §3, §4, §5, §6, §7, §8, §9, §10, §11, §12, §13, §14, §15, §16, §17, §18, §19, §20, §21, §22, §23

PKN1 (PRK1) = PKN1 (PRK1) (Homo sapiens, UniProt Q16512); assay: SelectScreen kinase profiling, ZLYTE; assay type: biochemical
Text: as §1, §2, §3, §4, §5, §6, §7, §8, §9, §10, §11, §12, §13, §14, §15, §16, §17, §18, §19, §20, §21, §22, §23

DYRK4 = DYRK4 (Homo sapiens, UniProt Q9NR20); assay: SelectScreen kinase profiling, ZLYTE; assay type: biochemical; settings: DYRK4, 10 µM
Text: as §1, §2, §3, §4, §5, §6, §7, §8, §9, §10, §11, §12, §13, §14, §15, §16, §17, §18, §19, §20, §21, §22, §23

SRPK1 = SRPK1 (Homo sapiens, UniProt Q96SB4); assay: SelectScreen kinase profiling, ZLYTE; assay type: biochemical; settings: SRPK1, 10 µM
Text: as §1, §2, §3, §4, §5, §6, §7, §8, §9, §10, §11, §12, §13, §14, §15, §16, §17, §18, §19, §20, §21, §22, §23

PAK7 (KIAA1264) = PAK7 (KIAA1264) (Homo sapiens, UniProt Q9P286); assay: SelectScreen kinase profiling, ZLYTE; assay type: biochemical
Text: as §1, §2, §3, §4, §5, §6, §7, §8, §9, §10, §11, §12, §13, §14, §15, §16, §17, §18, §19, §20, §21, §22, §23

MAPKAPK3 = MAPKAPK3 (Homo sapiens, UniProt Q16644); assay: SelectScreen kinase profiling, ZLYTE; assay type: biochemical; settings: MAPKAPK3, 10 µM
Text: as §1, §2, §3, §4, §5, §6, §7, §8, §9, §10, §11, §12, §13, §14, §15, §16, §17, §18, §19, §20, §21, §22, §23

RET S891A = RET S891A (Homo sapiens, UniProt P07949, S891A); assay: SelectScreen kinase profiling, ZLYTE; assay type: biochemical
ACVR1B (ALK4) = ACVR1B (ALK4) (Homo sapiens, UniProt P36896); assay: SelectScreen kinase profiling, ZLYTE; assay type: biochemical
AMPK (A2/B1/G2) = AMPK (A2/B1/G2) (Homo sapiens, UniProt P54646); assay: SelectScreen kinase profiling, ZLYTE; assay type: biochemical
AMPK (A2/B2/G3) = AMPK (A2/B2/G3) (Homo sapiens, UniProt P54646); assay: SelectScreen kinase profiling, ZLYTE; assay type: biochemical
MAPK8 (JNK1) = MAPK8 (JNK1) (Homo sapiens, UniProt P45983); assay: SelectScreen kinase profiling, LanthaScreen binding
PIM3 = PIM3 (Homo sapiens, UniProt Q86V86); assay: SelectScreen kinase profiling, ZLYTE; assay type: biochemical; settings: PIM3, 10 µM
D283 cells = assay type: cell-based; settings: D283, read-out: MTT: IC50 of the proliferation assay
AMPK (A1/B1/G3) = AMPK (A1/B1/G3) (Homo sapiens, UniProt Q13131); assay: SelectScreen kinase profiling, LanthaScreen binding

FLT4 (VEGFR3), sequence (P35916 25-1363): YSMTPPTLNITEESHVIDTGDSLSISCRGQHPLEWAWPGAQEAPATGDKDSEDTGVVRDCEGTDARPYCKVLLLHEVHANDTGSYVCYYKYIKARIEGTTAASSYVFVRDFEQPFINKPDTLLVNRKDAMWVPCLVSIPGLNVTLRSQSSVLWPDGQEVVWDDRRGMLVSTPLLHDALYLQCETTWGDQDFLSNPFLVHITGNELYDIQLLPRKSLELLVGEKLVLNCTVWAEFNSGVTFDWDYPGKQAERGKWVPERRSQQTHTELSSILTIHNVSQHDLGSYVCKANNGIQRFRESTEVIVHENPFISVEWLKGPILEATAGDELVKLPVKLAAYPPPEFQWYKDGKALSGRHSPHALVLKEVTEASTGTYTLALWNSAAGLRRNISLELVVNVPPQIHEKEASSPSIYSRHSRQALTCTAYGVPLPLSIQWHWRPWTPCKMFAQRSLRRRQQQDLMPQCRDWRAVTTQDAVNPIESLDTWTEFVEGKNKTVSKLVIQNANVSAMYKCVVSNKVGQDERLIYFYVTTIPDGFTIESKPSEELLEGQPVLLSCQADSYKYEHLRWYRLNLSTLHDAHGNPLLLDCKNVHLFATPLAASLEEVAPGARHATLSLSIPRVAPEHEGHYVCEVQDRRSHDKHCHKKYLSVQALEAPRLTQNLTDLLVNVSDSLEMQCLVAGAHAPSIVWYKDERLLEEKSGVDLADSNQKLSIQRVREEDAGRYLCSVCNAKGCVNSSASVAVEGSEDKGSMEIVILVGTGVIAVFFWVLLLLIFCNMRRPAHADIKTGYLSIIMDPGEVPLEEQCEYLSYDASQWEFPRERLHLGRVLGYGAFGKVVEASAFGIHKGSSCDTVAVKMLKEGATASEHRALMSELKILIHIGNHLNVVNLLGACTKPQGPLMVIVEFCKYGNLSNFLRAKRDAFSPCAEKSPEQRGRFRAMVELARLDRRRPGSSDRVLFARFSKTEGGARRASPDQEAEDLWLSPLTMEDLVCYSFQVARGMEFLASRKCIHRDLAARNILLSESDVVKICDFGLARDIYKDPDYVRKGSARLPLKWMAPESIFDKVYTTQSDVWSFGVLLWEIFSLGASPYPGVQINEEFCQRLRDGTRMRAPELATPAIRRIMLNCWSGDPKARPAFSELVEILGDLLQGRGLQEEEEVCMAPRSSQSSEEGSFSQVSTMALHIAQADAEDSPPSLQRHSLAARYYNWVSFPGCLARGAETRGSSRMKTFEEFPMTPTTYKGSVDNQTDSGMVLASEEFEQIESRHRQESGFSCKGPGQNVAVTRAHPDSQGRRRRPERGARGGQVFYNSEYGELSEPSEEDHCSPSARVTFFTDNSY
GRK5, sequence (P34947 whole entry): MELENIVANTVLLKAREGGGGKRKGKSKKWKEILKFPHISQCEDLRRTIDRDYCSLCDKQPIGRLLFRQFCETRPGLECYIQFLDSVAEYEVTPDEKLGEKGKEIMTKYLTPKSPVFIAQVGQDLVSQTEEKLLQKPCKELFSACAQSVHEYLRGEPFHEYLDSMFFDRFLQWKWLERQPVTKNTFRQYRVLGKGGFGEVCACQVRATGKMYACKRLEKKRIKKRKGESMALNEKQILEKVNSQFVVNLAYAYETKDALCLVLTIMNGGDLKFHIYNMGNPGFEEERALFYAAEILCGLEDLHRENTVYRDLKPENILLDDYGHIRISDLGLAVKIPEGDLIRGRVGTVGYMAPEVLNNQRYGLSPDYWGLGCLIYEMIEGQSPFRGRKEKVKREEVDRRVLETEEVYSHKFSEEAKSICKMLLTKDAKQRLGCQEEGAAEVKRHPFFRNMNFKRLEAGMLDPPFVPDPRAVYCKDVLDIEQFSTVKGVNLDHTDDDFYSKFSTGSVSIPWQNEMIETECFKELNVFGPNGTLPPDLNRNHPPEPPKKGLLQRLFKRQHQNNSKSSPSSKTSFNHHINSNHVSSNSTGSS
RPS6KA3 (RSK2), sequence (P51812 whole entry): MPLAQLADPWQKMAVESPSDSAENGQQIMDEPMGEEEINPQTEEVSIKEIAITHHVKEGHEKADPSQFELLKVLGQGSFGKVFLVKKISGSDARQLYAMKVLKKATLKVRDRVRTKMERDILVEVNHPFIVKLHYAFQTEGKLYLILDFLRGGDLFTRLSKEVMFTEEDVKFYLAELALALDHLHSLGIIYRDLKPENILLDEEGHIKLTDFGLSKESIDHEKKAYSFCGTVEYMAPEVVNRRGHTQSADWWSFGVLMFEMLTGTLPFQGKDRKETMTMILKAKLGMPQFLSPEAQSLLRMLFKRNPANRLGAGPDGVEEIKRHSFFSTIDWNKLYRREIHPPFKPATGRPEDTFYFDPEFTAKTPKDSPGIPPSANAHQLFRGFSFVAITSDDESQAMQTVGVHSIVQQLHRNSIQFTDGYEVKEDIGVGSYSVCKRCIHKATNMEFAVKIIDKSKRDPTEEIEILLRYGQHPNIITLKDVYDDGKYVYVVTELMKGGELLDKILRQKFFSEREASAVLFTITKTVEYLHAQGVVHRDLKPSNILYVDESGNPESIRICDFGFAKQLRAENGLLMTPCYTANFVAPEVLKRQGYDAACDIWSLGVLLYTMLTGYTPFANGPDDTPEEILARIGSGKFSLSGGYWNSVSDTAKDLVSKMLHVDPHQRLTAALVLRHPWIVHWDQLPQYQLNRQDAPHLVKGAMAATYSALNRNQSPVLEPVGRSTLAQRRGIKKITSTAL
KSR2, sequence (Q6VAB6 whole entry): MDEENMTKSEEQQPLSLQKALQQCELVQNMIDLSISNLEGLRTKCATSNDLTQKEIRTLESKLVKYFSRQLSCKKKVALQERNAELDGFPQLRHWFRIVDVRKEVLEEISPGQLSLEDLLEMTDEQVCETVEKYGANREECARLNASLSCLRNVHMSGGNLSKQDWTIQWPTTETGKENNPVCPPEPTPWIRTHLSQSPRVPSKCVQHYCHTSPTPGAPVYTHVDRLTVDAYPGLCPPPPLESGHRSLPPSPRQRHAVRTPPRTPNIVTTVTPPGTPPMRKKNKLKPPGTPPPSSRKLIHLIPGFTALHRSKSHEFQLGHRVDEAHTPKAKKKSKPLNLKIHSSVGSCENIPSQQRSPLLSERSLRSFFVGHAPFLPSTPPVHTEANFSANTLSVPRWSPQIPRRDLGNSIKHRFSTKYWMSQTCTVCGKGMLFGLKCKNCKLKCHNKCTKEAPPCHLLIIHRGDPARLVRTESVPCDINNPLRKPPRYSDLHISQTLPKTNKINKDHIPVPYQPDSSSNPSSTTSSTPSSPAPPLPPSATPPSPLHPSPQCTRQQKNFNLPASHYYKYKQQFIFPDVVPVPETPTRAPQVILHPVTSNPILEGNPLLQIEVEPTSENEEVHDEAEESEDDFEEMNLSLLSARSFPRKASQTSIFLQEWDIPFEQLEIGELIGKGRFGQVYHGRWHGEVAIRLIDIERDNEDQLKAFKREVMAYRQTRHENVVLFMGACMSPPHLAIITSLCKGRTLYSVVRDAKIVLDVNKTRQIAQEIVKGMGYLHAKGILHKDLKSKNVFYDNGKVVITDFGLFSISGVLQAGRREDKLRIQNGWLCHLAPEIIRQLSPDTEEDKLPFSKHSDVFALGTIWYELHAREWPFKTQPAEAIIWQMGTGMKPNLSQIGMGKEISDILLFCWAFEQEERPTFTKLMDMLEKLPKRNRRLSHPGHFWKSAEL
RAF1 (cRAF) Y340D Y341D, sequence (P04049 whole entry Y340D/Y341D): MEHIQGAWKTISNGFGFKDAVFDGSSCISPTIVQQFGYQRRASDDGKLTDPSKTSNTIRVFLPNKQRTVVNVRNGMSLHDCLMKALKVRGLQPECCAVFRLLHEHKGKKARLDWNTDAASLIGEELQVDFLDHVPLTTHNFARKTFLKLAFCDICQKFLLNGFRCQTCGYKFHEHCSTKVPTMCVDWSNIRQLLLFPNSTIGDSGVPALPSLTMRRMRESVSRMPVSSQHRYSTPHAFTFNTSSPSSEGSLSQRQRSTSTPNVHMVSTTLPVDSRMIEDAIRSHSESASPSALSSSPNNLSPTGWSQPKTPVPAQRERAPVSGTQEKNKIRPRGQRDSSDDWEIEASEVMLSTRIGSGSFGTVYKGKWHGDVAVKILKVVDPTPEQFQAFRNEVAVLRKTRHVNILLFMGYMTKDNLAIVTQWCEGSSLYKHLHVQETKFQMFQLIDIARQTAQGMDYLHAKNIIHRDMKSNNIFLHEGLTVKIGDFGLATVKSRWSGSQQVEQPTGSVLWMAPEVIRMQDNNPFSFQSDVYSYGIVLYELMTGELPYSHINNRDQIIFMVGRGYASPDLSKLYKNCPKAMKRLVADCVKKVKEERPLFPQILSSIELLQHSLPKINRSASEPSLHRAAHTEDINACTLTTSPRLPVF
SRPK1, sequence (Q96SB4 whole entry): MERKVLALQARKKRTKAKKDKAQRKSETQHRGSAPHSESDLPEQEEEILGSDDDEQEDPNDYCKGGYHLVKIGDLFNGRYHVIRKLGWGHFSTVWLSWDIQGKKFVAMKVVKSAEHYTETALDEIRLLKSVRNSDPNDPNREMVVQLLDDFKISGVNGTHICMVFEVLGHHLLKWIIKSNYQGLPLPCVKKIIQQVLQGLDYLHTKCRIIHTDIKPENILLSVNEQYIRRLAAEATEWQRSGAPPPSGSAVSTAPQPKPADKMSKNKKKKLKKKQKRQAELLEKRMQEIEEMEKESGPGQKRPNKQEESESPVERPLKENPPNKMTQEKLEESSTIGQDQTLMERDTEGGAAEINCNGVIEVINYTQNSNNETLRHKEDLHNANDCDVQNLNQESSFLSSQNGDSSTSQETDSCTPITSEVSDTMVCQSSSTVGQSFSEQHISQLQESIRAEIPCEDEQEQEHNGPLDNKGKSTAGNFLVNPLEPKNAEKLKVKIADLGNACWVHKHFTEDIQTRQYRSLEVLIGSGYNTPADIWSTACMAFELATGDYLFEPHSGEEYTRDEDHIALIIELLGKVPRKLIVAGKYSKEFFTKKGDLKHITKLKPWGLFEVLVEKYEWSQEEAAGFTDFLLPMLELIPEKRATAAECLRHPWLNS

O=C(c1ccc(/C=C/c2n[nH]c3ccccc23)cc1)N1CCNCC1 [KW-2449]
inhibition at 10 µM (LRRK2 FL): 100%
inhibition at 10 µM (FLT4 (VEGFR3)): 95%
inhibition at 10 µM (GRK4): 61%
inhibition at 10 µM (PRKCZ (PKC zeta)): 9%
inhibition at 10 µM (INSRR (IRR)): 96%
inhibition at 10 µM (CSNK1E (CK1 epsilon)): 67%
inhibition at 10 µM (RPS6KA3 (RSK2)): 95%
inhibition at 10 µM (BTK): 99%
inhibition at 10 µM (PTK2 (FAK)): 95%
inhibition at 10 µM (GRK5): 17%
inhibition at 10 µM (RAF1 (cRAF) Y340D Y341D): 74%
inhibition at 10 µM (PLK2): 35%
inhibition at 10 µM (STK22D (TSSK1)): 99%
inhibition at 10 µM (NEK6): 10%
inhibition at 10 µM (KSR2): 5%
inhibition at 10 µM (PTK6 (Brk)): 71%
inhibition at 10 µM (INSR): 96%
inhibition at 10 µM (MST1R (RON)): 97%
inhibition at 10 µM (PKN1 (PRK1)): 72%
inhibition at 10 µM (DYRK4): 16%
inhibition at 10 µM (SRPK1): 31%
inhibition at 10 µM (PAK7 (KIAA1264)): 98%
inhibition at 10 µM (MAPKAPK3): 4%
inhibition at 10 µM (RET S891A): 97%
inhibition at 10 µM (ACVR1B (ALK4)): 39%
inhibition at 10 µM (AMPK (A2/B1/G2)): 97%
inhibition at 10 µM (AMPK (A2/B2/G3)): 98%
inhibition at 10 µM (MAPK8 (JNK1)): 81%
inhibition at 10 µM (PIM3): 2%
IC50 (D283 cells): 8.05 µM
inhibition at 10 µM (AMPK (A1/B1/G3)): 71%

From article PMC6540285, “Evaluation of Protein Kinase Inhibitors with PLK4 Cross-Over Potential in a Pre-Clinical Model of Cancer” (International Journal of Molecular Sciences, 2019)
